Source: patent US7018806B2, “Method for identifying endocrine disruptors and kit for carrying out the same” (priority 2001, dated 2006)

Key:
[1] = test system: marine neogastropods; conditions: cited from earlier work
[2] = biological target: T1, aromatase (Homo sapiens, UniProt P11511); experiment: Aromatase activity in KGN cells by [3H]H2O release assay; format: cell-based; conditions: for effect on aromatase activity in KGN cells: method of Example 3, FIGS. 5A–5B
T1 construct: endogenous in cells; host or cells: KGN human ovarian granulosa-like tumor cell line (RIKEN RCB 1154)
T1 sequence (P11511 1-503): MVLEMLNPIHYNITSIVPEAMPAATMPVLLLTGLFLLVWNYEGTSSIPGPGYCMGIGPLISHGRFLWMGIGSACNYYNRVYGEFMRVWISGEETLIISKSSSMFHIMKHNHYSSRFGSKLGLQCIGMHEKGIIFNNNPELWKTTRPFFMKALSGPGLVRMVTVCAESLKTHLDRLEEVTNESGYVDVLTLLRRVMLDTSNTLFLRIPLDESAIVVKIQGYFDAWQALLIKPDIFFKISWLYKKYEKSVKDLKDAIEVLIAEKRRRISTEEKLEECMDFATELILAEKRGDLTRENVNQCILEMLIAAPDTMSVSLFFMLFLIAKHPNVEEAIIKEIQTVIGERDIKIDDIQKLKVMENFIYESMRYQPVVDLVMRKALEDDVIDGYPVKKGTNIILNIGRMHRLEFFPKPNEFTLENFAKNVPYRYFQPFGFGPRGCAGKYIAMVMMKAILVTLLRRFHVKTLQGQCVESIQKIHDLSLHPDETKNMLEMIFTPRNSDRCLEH
Experimental: Assaying for inhibition or activation of aromatase activity may be carried out by measuring the amount of [^3H]H2O released upon conversion of [1β-^3H]androstenedione to estrone using a modification of the method of Ackerman et al, J. Clin. Endocrinol. Metab., 53:412–417 (1981), or as described in Example 3 below. Briefly, the cells are plated on a petri dish (Falcon 3001) in culture medium with 10% (v/v) fetal calf serum (FCS). At is confluence, the culture medium is replaced with DMEM/Ham's F-12 containing 5.0–10% (v/v) dextran-coated, charcoal-treated FCS (DCS) (Hyclone, Logan Utah), and incubated for another 12 h in the presence or absence of 10^−5–10^−2 M db-cAMP (Wako Pure Chemical Industries Ltd.) and the test compound. After treatment, the cells are further incubated with 12.5 nM [1β-^3H]androstenedione (NEN Life Science Products, Boston, Mass.; SA, 27.5 Ci/mmol) for 6–12 h. After incubation, the medium (2.0 ml) is transferred to tubes containing 1.0 ml ice-cold 30% (w/v) trichloroacetic acid (TCA), and then centrifuged to remove precipitated protein. The cells are harvested using 0.25% (w/v) trypsin-1.0 mM EDTA to determine the protein concentration. The protocol for the extraction of the medium to measure the amount of [^3H]H2O is performed as described by Tanaka et al, Calcif. Tissue Int., 52:107–109 (1993). Finally, the amount of radioactivity in the [^3H]H2O is corrected by subtracting the blank values from each sample. The cell protein content is determined using a micro bicinichoninic acid kit (Pierce Chemical Co., Rockford, Ill.) after the cells are dissolved in 1.0 N NaOH. The aromatase activity is expressed as picomoles per mg cell protein. As a control, the aromatase activities of human granulosa cells (obtained from in vitro fertilization programs), human fibroblast, and HOS cell (human osteoblast-like cell line) (Tanaka et al, supra) can be measured in the same manner.
More specifically, aromatase activity was determined by measuring [^3H] H2O release upon conversion of [1β-^3H]androstenedione (A) to estrone (E1), as described by Mu et al, Biochem. Biophys. Res. Commun., 271(3):710–713 (2000). [1β-^3H]androstenedione was purchased from Amersham Pharmacia Biotech (Boston, Mass.).
The medium (2.0 ml) was extracted with chloroform, and was then centrifuged. The aqueous supernatant was mixed with 5.0% (w/v) charcoal/0.5% (w/v) dextran, and incubated for 30 min. Thereafter, the mixture was centrifuged and the supernatant was added to 5.0 ml of scintillation fluid and assayed for radioactivity. The amount of radioactivity in [^3H]H2O thus measured was standardized based on the protein concentration, which was determined using a micro BCA kit (Pierece Chemical Co., Rockford, Ill.), and expressed as pmol/mg protein/6 h.

[3] = test system: P450arom promoter II; experiment: Luciferase reporter assay of P450arom promoter II in transfected KGN cells; format: cell-based, human; conditions: for luciferase activity of P450arom promoter II: 20 ng/ml, 48 h, basic state or stimulated by db-cAMP; for Ad4BP/SF-1-dependent increase of the luciferase activity: co-transfected with Ad4BP expression vector
Experimental: Thus, to determine whether or not the decreased expression of P450arom mRNA was regulated through promoter II, which is the major promoter in ovarian granulosa cells (Nishi et al, Endocrinol., 142:437–445 (2001); Means et al, Mol. Endocrinol., 5:2005–2013 (1991); and Carlone et al, Mol. Endocrinol., 11:292–304 (1997)), luciferase activity was determined using a 1 kb P450arom promoter II expression construct in the luciferase reporter vector, pGL3 (Mu et al, Mol. Cell. Endocrinol., 181:239–248 (2001)). pGL3 was obtained from Promega (Madison, Wis.). Transfection was performed using SuperFect reagents according to the manufacturer's instructions (Qiagen (Hilden, Germany)). More specifically, 1×10^5 cells were seeded in a 6-well plate 12 h prior to transfection, and transfected with 2.0 μg of DNA. Five nanograms of Renilla luciferase control reporter vector, pRL-CMV, obtained from Promega (Madison, Wis.), as an internal standard, were added per well to assess the transfection efficiency. […] The promoter activity determined is shown as a fold-increase in the luciferase activity normalized for Renilla luciferase activity (termed relative luciferase activity).

[4] = test system: Thais clavigera; conditions: rock shell; cited from earlier work
[5] = test system: E2 production in KGN cells; experiment: Estradiol (E2) production in cultured KGN cells (RIA); format: cell-based, human; conditions: 20 ng/ml, 7 days
Experimental: The media was collected and the E2 content in the media was determined by specific RIA (SRL, Inc. Tokyo, Japan).

[6] = test system: KGN cells; experiment: Effect on KGN cell growth (cell counting, trypan blue exclusion); format: cell-based, human; conditions: for toxicity to KGN cells: more than 1000 ng/ml, within 24 h
Experimental: Further, both compounds were dissolved in ethanol, and the final concentration of ethanol in the cell growth medium was 0.1% (w/v).
More specifically, the cells were plated onto a 24-well plate at 1×10^4 cells/well in DMEM/F-12 supplemented with 10% (v/v) FCS. […] Cell viability was assessed by the trypan blue exclusion method.

[7] = test system: Ad4BP; experiment: Expression level of Ad4BP in KGN cells by RT-PCR; format: cell-based, human
[8] = test system: KGN cells; conditions: 200 ng/ml
Experimental: More specifically, early and late apoptotic changes in the cells were determined using an Annexin V-EGFP/PI Apoptosis Detection Kit, as described by Mu et al, Endocrinol., 142:3590–3597 (2001). […] After the treatment, the cells were washed once with phosphate-buffered saline (PBS), and then incubated with 200 ml of 1× binding buffer comprising 1.0 ml annexin V-EGFP and 1.0 ml propidium iodide (PI) at room temperature for 5 min in the dark. The cells were then scanned using a confocal laser scanning microscopy (Leica TCS-SP system, Leica Microsystems, Heidelberg, Germany) using a dual filter set for FITC & TRITC. The cell membrane was imaged for green fluorescence (stained by annexin V-EGFP) by excitation with the 488 nm line from an argon laser, and the emission was viewed through a 460 to 505 nm band pass filter. The cell nucleus was imaged for red fluorescence (stained by PI) by excitation with the 560 nm line from an argon laser, and the emission was viewed through a 520 to 580 nm band pass filter.

[9] = test system: P450arom mRNA; conditions: 20 ng/ml, 48 h
Experimental: RNA extraction and RT-PCR analysis for P450arom mRNA were performed as described by Ikuyama et al, Clin. Endrocrinol., 48(5):647–654 (1998). Taq DNA polymerase was obtained from Promega (Madison, Wis.) All of the primers for the PCR were synthesized by Amersham Pharmacia Biotech (Osaka, Japan). The PCR products were electrophoresed on 2.0% (w/v) agarose gel containing […] ethidium bromide.
The relative expression levels of P450arom vis-à-vis β-actin were determined by the measuring of the intensity of the ethidium bromide.

[10] = same culture system (KGN cells)

Molecule: CC1=CC(=O)C=C2CC[C@@H]3[C@H](CC[C@]4(C)C(=O)CC[C@@H]34)[C@@]12C [SH489]
- imposex induction ([1]; compared with TBT-exposure): same imposex-inducing effect

Molecule: triphenyltin [TPT]
- aromatase activity, % of the baseline ([2]; 20 ng/ml, 72 h, basal (no db-cAMP)): about 30%
- effect on db-cAMP-induced increase in aromatase activity ([2]; 20 ng/ml, with 10^−4 M db-cAMP): suppressed
- luciferase activity of P450arom promoter II [3]: decreased
- Ad4BP/SF-1-dependent increase of the luciferase activity [3]: significantly suppressed
- effect on the development of imposex [4]: strong effect
- E2 concentration in the medium [5]: significant decrease
- effect on KGN cell proliferation ([6]; less than 50 ng/ml (2 or 20 ng/ml), 7 days): little effect
- toxicity to KGN cells [6]: all of the cells died
- expression level of Ad4BP [7]: unchanged

Molecule: ClC1=C(Cl)C2(Cl)C3C(Cl)C=CC3C1(Cl)C2(Cl)Cl (stereo not shown) [Heptachlor]
- effect on aromatase activity in KGN cells [2]: activate aromatase activity

Molecule: CCCC(=O)Nc1ncnc2c1ncn2[C@@H]1O[C@@H]2COP(=O)(O)O[C@H]2[C@H]1OC(=O)CCC [db-cAMP, dibutyryl cyclic AMP]
- increase in aromatase activity over baseline ([2]; 10^−4 M db-cAMP): 1.7 fold
- activation of the P450arom promoter II ([3]; 10^−4 M db-cAMP): 1.7 fold

Molecule: CC(=O)O[C@]1(C(C)=O)CC[C@H]2[C@@H]3C=C(Cl)C4=CC(=O)[C@@H]5C[C@@H]5[C@]4(C)[C@H]3CC[C@@]21C [cyproterone acetate]
- effect on TBT-induced imposex ([1]; in vivo): completely suppressed

Molecule: c1ccc2c(c1)c1cccc3ccc4cccc2c4c31 [Benzopyrene]
- effect on aromatase activity in KGN cells [2]: activate aromatase activity

Molecule: tributyltin [TBT]
- luciferase activity of P450arom promoter II [3]: decreased
- Ad4BP/SF-1-dependent increase of the luciferase activity [3]: significantly suppressed
- apoptotic changes (annexin V positive/PI negative) ([8]; 48 h): early apoptotic cells
- apoptotic changes (annexin V positive/PI positive) ([8]; 72 h): late apoptotic cells
- toxicity to KGN cells [6]: all of the cells died
- expression level of Ad4BP [7]: unchanged
- P450arom mRNA levels [9]: decrease

Molecule: N#Cc1ccc(N(Cc2ccc(Br)cc2)n2cnnc2)cc1 [YM511]
- extent of suppression of aromatase activity [2, 10]: complete suppression
- time for suppression of aromatase activity [2, 10]: ≤ 5 min

Molecule: CCCCNC(=O)n1c(NC(=O)OC)nc2ccccc21 [Benomyl]
- effect on aromatase activity in KGN cells [2]: activate aromatase activity
